Values after ≈ are worked out from the molar mass of the structure shown. Values joined by “and” are separate entries in the source; they are usually repeats but may differ in a detail not shown here. Equal entries are not always repeated. Where two headings read alike, the source gives them in different places. Where a SMILES comes first, the peptide text is derived from it.
Legend:
[1] = tested on: Staphylococcus aureus ATCC 19636 (Smith); experiment: microbe, parasite or virus in culture; details: ATCC 19636
Protocol: (§1) The S. aureus strains ATCC 29213, ATCC 19636, ATCC 33591 (MRSA), BAA-1556 (MRSA USA 300) were obtained from the American Type Culture Collection (ATCC). […] The species identity was confirmed with 16S rRNA analysis.
(§2) Two broth mediums were used, Mueller Hinton Broth and RPMI 1640+5% fetal bovine serum. Test substances were evaluated in 11-point titrations and performed in duplicate.
(§3) The direct colony suspension method was used to prepare inoculated broth. Isolated colonies were taken from an 18-24 h culture plate. Optical density measurements (OD620nm) were used to estimate the bacterial density. […] The stock solutions were diluted by 2-fold serial titrations with their respective vehicles for a total of 11 concentrations.
(§4) A 4 μL aliquot of each dilution was added to 196 μL of broth medium seeded with the organism in wells of a sterilized 96 well polypropylene plate (Nunc™ 249949) using aluminum foil as cover. The final bacterial count was 2 to 8×10^5 CFU/mL. […] The final test article concentration range was 32 to 0.0313 μg/mL.
(§5) Each test substance dilution was evaluated in duplicate on one test occasion. […] Plates were incubated at 35-37° C. for 18 h. The test plates were visually examined and each well was visually scored for growth or complete inhibition of growth. The MIC value was recorded.

[2] = tested on: Staphylococcus aureus ATCC 29213; experiment: microbe, parasite or virus in culture; details: ATCC 29213
Protocol: as §1, §2, §3, §4, §5

[3] = tested on: Staphylococcus aureus ATCC 33591 (MRSA); experiment: microbe, parasite or virus in culture; details: ATCC 33591
Protocol: as §1, §2, §3, §4, §5

[4] = tested on: Staphylococcus aureus ATCC BAA-1556 (USA300, MRSA); experiment: microbe, parasite or virus in culture; details: ATCC BAA-1556
Protocol: as §1, §2, §3, §4, §5

[5] = tested on: five S. aureus strains; details: Mueller Hinton Broth
Protocol: as §2, §3, §4, §5

[6] = tested on: panel of Gram-negative or Gram-positive pathogens; details: RPMI (5% FCS); Gram-negative isolates, all but the P. aeruginosa isolates
Protocol: MICs were determined on the same plates as the FICs to increase reproducibility.
Methods: The natural AMP (termed AMP1) was modified to produce synthetic variants, AMPs 1a, 2a, 2b, 3a and 3b. Minimum inhibitory concentrations (MICs) were determined using the microbroth dilution assay with Mueller Hinton broth (MHB) or RPMI (with 5% FBS) and stability in serum was tested by conducting MICs in MHB containing 10% FBS. Synergy experiments were performed following a checkerboard protocol. Cytotoxicity was tested against HEK293 and HeLa immortalised human cell-lines using the XTT viability stain and by quantifying haemolysis of human red blood cells. Patch clamp analysis was performed using the Port-a-Patch® automated patch-clamp system on DPhPE/DPhPG (model for a Gram-negative plasma membrane) or DPhPG (Gram-positive) model membranes challenged with peptide. The murine lung infection model was performed using the agar bead model with Staphylococcus aureus strain NCTC 13616 (EMRSA-15).

[7] = tested on: EMRSA-15 lung infection
Protocol: Murine EMRSA-15 lung infection model. In one embodiment this was carried out using the method described previously,^58 an overnight culture of EMRSA-15 was prepared in tryptic soy broth (TSB). EMRSA-15 was cultured in TSB overnight at 37° C., adjusted to a starting OD600 of 0.025, and grown for additional 4 h for agar beads preparation. EMRSA-15 was embedded into agar beads by mixing the overnight culture with molten tryptic soy agar, which was then spun into warmed mineral oil. The preparation was cooled and centrifuged at 2,700 g, the remaining oil was eliminated and the beads were washed in sterile PBS. The colony forming unit (cfu) content of the beads slurry was subsequently quantified on TSA plates and the beads slurry then diluted to either 2×10^7 cfu/ml in sterile PBS to deliver a final dose of either 1×10^6 cfu/mouse. Animal work was performed in accordance with the Animals (Scientific Procedures) Act of 1986 (United Kingdom). On day 0, male C57B16J mice (8-10 weeks, Charles River) were anesthetized under Isoflurane and 50 μl inoculum of EMRSA-15 embedded in agar beads (10^6 cfu/mouse) was instilled directly into the respiratory tract via oropharyngeal dosing (o.a) to reduce severity associated with surgery. Sham control mice were inoculated with sterile PBS agar beads. […] Body weight was measured daily, and animals monitored at regular intervals for signs of pain and distress. 48 hours post pulmonary infection, animals were terminally euthanized using 25% Urethane via intra-peritoneal injection. Lungs, were removed and homogenized in 2 ml PBS. Samples were serially diluted 1:10 in PBS and plated for CFU count. Lung homogenates were then centrifuged at 14000 rpm for 30 min at 4° C. and the supernatants were stored at −80° C. for future analysis. For bronchoalveolar lavage fluid collection and analysis (total and differential cell count), a 22-gauge catheter was inserted into the trachea and BAL was recovered by instillation of 0.5 ml of sterile PBS three times and total cells counts were performed by adding Turks stain in a 1:1 ratio. Total cells were then enumerated on an improved Naubauer haemocytometer. BAL fluid was then centrifuged, and supernatants were stored at −20° C. Cytospin slides were prepared and 100 μl of BAL was added into a cytospin funnel and centrifuged at 1000 rpm for 1 minute on a medium acceleration. The slides were then stained using Diff-Quick (Dade, Biomap, Italy).
More suitably Murine EMRSA-15 lung infection model was carried out using the method described previously,^58 an overnight culture of EMRSA-15 was prepared in tryptic soy broth (TSB). EMRSA-15 was cultured in TSB overnight at 37° C., adjusted to a starting OD600 of 0.025, and grown for additional 4 h for agar beads preparation. EMRSA-15 was embedded into agar beads by mixing the overnight culture with molten tryptic soy agar, which was then spun into warmed mineral oil. The preparation was cooled and centrifuged at 2,700 g, the remaining oil was eliminated, and the beads were washed in sterile PBS. The colony forming unit (CFU) content of the beads slurry was subsequently quantified on TSA plates and the beads slurry then diluted to either 2×10^7 CFU/ml in sterile PBS to deliver a final dose of either 1×10^6 CFU/mouse. Animal work was performed in accordance with the Animals (Scientific Procedures) Act of 1986 (United Kingdom). On day 0, male C57B16J mice (8-10 weeks, Charles River) were anesthetized under Isoflurane and 50 μl inoculum of EMRSA-15 embedded in agar beads (10^6 CFU/mouse) was instilled directly into the respiratory tract via oropharyngeal dosing (o.a.) to reduce severity associated with surgery. Sham control mice were inoculated with sterile PBS agar beads.

With `CC(C)C[C@@H](NC(=O)[C@@H](Cc1ccc(O)cc1)NC(=O)[C@@H](Cc1c[nH]cn1)NC(=O)[C@H](NC(=O)[C@@H](CC(C)C)NC(=O)[C@@H](C)NC(=O)[C@@H](C)NC(=O)[C@@H](CCCNC(=N)N)NC(=O)CNC(=O)[C@H](NC(=O)[C@@H](Cc1c[nH]cn1)NC(=O)[C@@H](CCCNC(=N)N)NC(=O)CNC(=O)[C@H](NC(=O)[C@@H](Cc1c[nH]cn1)NC(=O)[C@@H](C)NC(=O)[C@@H](C)NC(=O)[C@@H](CCCNC(=N)N)NC(=O)[C@@H](CCCNC(=N)N)NC(=O)[C@@H](Cc1ccccc1)NC(=O)[C@@H](Cc1ccccc1)NC(=O)[C@@H](CO)NC(=O)CNC(=O)[C@@H](Cc1c[nH]c2ccccc12)NC(=O)CN)C(C)C)C(C)C)[C@H](C)O)C(N)=O` [D-pleurocidin-KR] (HELM PEPTIDE1{G.[dW].G.[dS].[dF].[dF].[dR].[dR].[dA].[dA].[dH].[dV].G.[dR].[dH].[dV].G.[dR].[dA].[dA].[dL].[dT].[dH].[dY].[dL].[am]}$$$$V2.0; N-terminus assumed) the MIC [1] was 2 µg/mL (≈ 0.709 µM), the MIC [2] was 2 µg/mL (≈ 0.709 µM) and the MIC [3] was 2 µg/mL (≈ 0.709 µM). For the same molecule, the MIC [4] was 2 µg/mL (≈ 0.709 µM), the “MIC against the five tested S. aureus strains” value [5] was 2 µg/mL (≈ 0.709 µM) and the “effective concentration (MIC) in RPMI” value [6] was ≤ 4 µg/mL. The “reduction in lung CFU” value ([7]; cumulative dose 1.5 mg/kg/48h i.v.) was 0.9 log10, the “reduction in lung CFU” value ([7]; cumulative dose 15 mg/kg/48h i.v. (three doses at 4, 24, 30 h post infection), 15 mg/kg) was 1.14 log10 and 1.1 log10 and the “reduction in lung CFU” value ([7]; cumulative dose 15 mg/kg/48h i.v. (three doses at 4, 24, 30 h post infection), listed as AMP2b, 15 mg/kg) was 1.14 log10. For the same molecule, the “weight loss over the 48-hour infection period” value ([7]; cumulative dose of 15 or 1.5 mg/kg/48h i.v.) was “mitigates this weight loss”, the “IL-6 and neutrophil recruitment in BAL” value ([7]; following therapy, i.v.) was “reduced” and the “macrophage numbers, TNFα and MCP-1 levels in BAL” value ([7]; following therapy, i.v.) was “No effects”. The “tolerability in murine lung infection model” value ([7]; i.v., cumulative dose of 15 or 1.5 mg/kg) was “well tolerated”, the “weight loss over the 48-hour infection period” value ([7]; lowest cumulative dose of 0.15 mg/kg i.v.) was “no observable effect” and the “IL-6 and neutrophil recruitment in BAL” value ([7]; lowest dose of D-pleurocidin-KR (0.15 mg/kg cumulative)) was “significant reduction”. The “effective cumulative dose over 48 hrs” value ([7]; murine EMRSA-15 lung infection) was 1.5 mg/kg and the “mouse KC levels in BAL” value ([7]; vancomycin 600 mg/kg or the two higher D-pleurocidin-KR doses (15, 1.5 mg/kg cumulative)) was “KC levels to fall to that of the uninfected group”.
